Test results reported in patent US20240360145A1, “PYRIMIDINE-2,4-DIAMINE DERIVATIVES AS WELL AS PREPARATION METHOD THEREFOR AND USE THEREOF” (LISEN THERAPEUTICS, INC., priority 2022, published 2024).

Experiments:
Type in all cases: cell-based
DMS114 cells = experiment: Cell viability IC50 (CCK-8), small cell lung cancer cell line DMS114; details: Homo sapiens, DMS-114; DMS114, CCK-8
Protocol: (§1) Small cell lung cancer cell lines DMS114, NCI-H1688, NCI-H82, NCI-H146, and NCI-H446 cells were cultured in RPMI-1640 medium containing 10% fetal bovine serum and 1% penicillin-streptomycin. All the cells were cultured in a constant temperature incubator containing 5% CO2 at 37° C.
(§2) Small cell lung cancer is a highly heterogeneous malignant tumor, and its clinical treatment is mainly based on traditional chemotherapy (mainly platinum medicaments and etoposide). In order to study the anti-tumor activity of the compounds of the present disclosure in small cell lung cancer, the CCK-8 method was used to investigate the cell viability IC50 of compound 8 for five small cell lung cancer cell lines.

NCI-H1688 cells = experiment: Cell viability IC50 (CCK-8), small cell lung cancer cell line H1688; details: NCI-H1688; H1688, CCK-8
Protocol: as §1, §2

PE039 primary cells = experiment: Cell viability IC50 (CCK-8), primary cells PE039 from small cell lung cancer pleural effusion; details: PE039, CCK-8
Protocol: (1) The pleural effusion was poured into a 15 mL or 50 mL of sterilized centrifuge tube for centrifugation. Centrifugation conditions: 800 to 1000 rpm, 5 min.
(2) The precipitate was resuspended and washed for 2 to 3 times with PBS.
(3) The cell precipitate was resuspended with complete culture medium (α-MEM medium containing 10% fetal bovine serum and 2% penicillin-streptomycin), and the flocculent matter in the pleural effusion was removed using a sterilized cell sieve.
(4) The red blood cells in the pleural effusion were removed with lymphocyte separation fluid, and the tumor cells and lymphocyte components were collected. The number of tumor cells was observed under a microscope, and the cells were inoculated.
(5) After 24 hours, the supernatant was discarded, and fresh culture medium was added for further culture.
(6) The cell growth status was observed, and it was determined based on the cell status whether the medium was required to be continuously changed to remove blood cells. When the cells grew to a density of 80% to 90%, the cells were preserved.
(1) Primary cells from lung cancer pleural effusion within 5 generations were cultured to the logarithmic growth phase. […] After centrifugation at room temperature, the supernatant was discarded, and the cell precipitate was resuspended with fresh complete culture medium. After counting, the cells were placed at room temperature for later use. The cells were inoculated into a 384-well plate at a density of 2000 cells/well with a volume of 40 μl/well. The wells at the outermost circle of the plate were not inoculated with cells, and instead, added with sterile water to reduce evaporation of the culture medium.
(§3) (2) After overnight culture of the cells, the medium was discarded, and a fresh medium containing different concentrations of compounds was added at 200 μl/well. The dilution method of the compound was as follows: first the compound with the highest concentration of 10 μM was prepared, and then the compound was diluted for 3 times in sequence. […] At the same time, a blank control group was set up, in which only an equal volume of culture medium was added without adding cells. Five replicate wells were set up for each group. The cells were placed in the incubator for further culture.
(§4) (3) After 72 hours, 8 μl of CCK-8 solution, which was double-diluted with 10 mM PBS, was added to each well, and the cells were shaken and placed in an incubator at 37° C. for further culture for 2 hours.
(4) The light absorbance value at 450 nm was read using a microplate reader, and the IC50 was calculated according to the absorbance value. The calculation method was the same as above. […]

LT015 primary cells = experiment: Cell viability IC50 (CCK-8), primary cells LT015 from small cell lung cancer bronchoscopic biopsy; details: LT015, CCK-8
Protocol: (1) The tissue blocks obtained from the tumor patients were transferred from the preservation solution to the pre-cooled HBSS buffer containing antibiotics, and the tissue blocks were washed for three times with the pre-cooled HBSS buffer.
(2) Tissue was sheared on ice with sterile surgical instruments until no obvious tissue blocks are visible to the naked eye, the tissue fluid was collected into a 15 ml centrifuge tube, and this process takes about 5 to 10 minutes.
(3) Digestive enzymes (collagenase I, collagenase IV and neutral protease being mixed in a ratio of 1:1:1, a concentration of stock solution was 10 mg/ml, diluted with PBS buffer or HBSS buffer, and the use concentration was 1 mg/ml) were added to the centrifuge tube, and after mixing well by pipetting, the centrifuge tube was placed in a 37° C. constant temperature incubator for 1 to 2 hours.
(4) High-glucose medium was added to the centrifuge tube to stop digestion. After mixing well, the cell precipitate was collected by centrifugation, and resuspended with MBM medium (Advanced DMEM-F12+20 ng/ml bFGF+50 ng/ml EGF+1% ITS-X+2% B27+10 μMY-27632+1% PS). The cell suspension was placed in a Matrigel-coated 24-well plate and cultured for 5 to 7 days. When the cell density in the well plate reaches 80-90%, the cells were sub-cultured into a 6 cm cell culture dish, and when they grew to a density of 80% to 90%, the cells were cryopreserved for preservation.
(1) Primary cells from lung cancer pleural effusion within 5 generations were cultured to the logarithmic growth phase. When the confluence reached about 90%, the cells were digested with 0.25% trypsin, and complete culture medium was added to collect the cells. After centrifugation at room temperature, the supernatant was discarded, and the cell precipitate was resuspended with fresh complete culture medium. After counting, the cells were placed at room temperature for later use. The cells were inoculated into a 384-well plate at a density of 2000 cells/well with a volume of 40 μl/well. The wells at the outermost circle of the plate were not inoculated with cells, and instead, added with sterile water to reduce evaporation of the culture medium.
as §3, §4
(4) The light absorbance value at 450 nm was read using a microplate reader, and the IC50 was calculated according to the absorbance value. The calculation method was the same as above.
(1) Sample information: PE039, PE052, and PE062 were all primary cell samples from pleural effusion of patients with small cell lung cancer, and LT015 was a primary cell sample from bronchoscopic biopsy of a patient with small cell lung cancer.
(2) CCK-8 detection was used to detect the IC50 values of different medicaments (compounds).

Cal-62 (thyroid cancer) = experiment: Cell viability IC50 (CellTiter-Glo), Cal-62; details: Homo sapiens, Cal-62, 72 hours
Protocol: (§5) The cancer cell lines were cultured to the logarithmic growth phase according to conventional culture methods, and the cells were inoculated into a 384-well plate at a density of 2,000 cells/well in a volume of 40 μl/well. The concentrations of added compounds were: […], 1.67 μM, 0.56 μM, 0.19 μM, 0.062 μM, 0.021 μM, 0.0069 μM, 0.0023 μM, 0.00076 μM, and 0 μM. After 72 hours, cell viability was detected using the CellTiter-Glo™ Detection Kit.

Hep3B (liver cancer) = experiment: Cell viability IC50 (CellTiter-Glo), Hep3B; details: Homo sapiens, 72 hours
Protocol: as §5

RT-4 (bladder cancer) = experiment: Cell viability IC50 (CellTiter-Glo), RT-4; details: RT-4, 72 hours
Protocol: as §5

LN-18 (glioma) = experiment: Cell viability IC50 (CellTiter-Glo), LN-18; details: Homo sapiens, LN-18, 72 hours
Protocol: as §5

A375 (melanoma) = experiment: Cell viability IC50 (CellTiter-Glo), A375; details: Homo sapiens, A-375, A375, 72 hours
Protocol: as §5

PC-3 (prostate cancer) = experiment: Cell viability IC50 (CellTiter-Glo), PC-3; details: PC-3, 72 hours
Protocol: as §5

## CN1CC2CCC(C1)N2Cc1ccc(Nc2ncc(Cl)c(Nc3ccccc3S(=O)(=O)N(C)C)n2)cc1 [Compound 8, 2-((5-chloro-2-((4-((3-methyl-3,8-diazabicyclo[3.2.1]octan-8-yl)methyl)phenyl)amino)pyrimidin-4-yl)amino)-N,N-dimethylbenzenesulfonamide]
DMS114 cells
  IC50: 0.00603 µM
NCI-H1688 cells
  IC50: 0.00501 µM
PE039 primary cells
  IC50: 0.0515 µM
LT015 primary cells
  IC50: 0.00611 µM
Cal-62 (thyroid cancer)
  IC50: 0.0219 µM
Hep3B (liver cancer)
  IC50: 0.185 µM
RT-4 (bladder cancer)
  IC50: 0.054 µM
LN-18 (glioma)
  IC50: 0.0078 µM
A375 (melanoma)
  IC50: 0.0233 µM
PC-3 (prostate cancer)
  IC50: > 3 µM
